Experiments:
[1] = system: MRC5; assay: Cytotoxicity against human MRC5 cells assessed as inhibition of proliferation by SRB method; assay type: cell-based
[2] = system: A549; assay: Cytotoxicity against human A549 cells assessed as inhibition of proliferation by SRB method; assay type: functional, cell-based
[3] = Cytotoxicity against human HL-7702 cells assessed as inhibition of proliferation by SRB method; assay type: functional, cell-based; conditions: L02
[4] = Cytotoxicity against human 95-D cells assessed as inhibition of proliferation by SRB method; assay type: functional, cell-based

In the case of `C=C1[C@@H](C)[C@H]2[C@H](Cc3ccccc3)NC(=O)[C@]23[C@H](O)/C=C/[C@@](C)(O)C(=O)[C@@H](C)C/C=C/[C@H]3[C@@H]1O` [ZYGOSPORIN D], the IC50 [1] is reported as > 200 µM, the IC50 [2] is reported as 16.7 µM and the IC50 [3] is reported as 30.2 µM. The IC50 [4] was 4.04 µM.
In the case of `CC1=C(C)[C@H]2[C@H](Cc3ccccc3)NC(=O)[C@]23[C@H](O)/C=C/[C@@](C)(O)C(=O)[C@@H](C)C/C=C/[C@H]3[C@@H]1O` [DEACETYLCYTOCHALASIN C], the IC50 [1] is reported as > 200 µM, the IC50 [2] is reported as 13.6 µM and the IC50 [3] is reported as 31.1 µM. For the same compound, the IC50 [4] was 3.67 µM.
With `CC1=C(C)[C@H]2[C@H](Cc3ccccc3)NC(=O)[C@]23[C@H](O)/C=C/[C@H](C)C(=O)[C@@H](C)C/C=C/[C@H]3C1=O` the IC50 [1] was > 200 µM, the IC50 [2] was 32.3 µM and the IC50 [3] was 29.8 µM. The IC50 [4] was 23.7 µM.
For `CC1=C[C@@H]2/C=C/C[C@H](C)C(=O)[C@](C)(O)/C=C/[C@@H](O)[C@]23C(=O)N[C@@H](Cc2ccccc2)[C@@H]3[C@H]1C`, the IC50 [1] was > 200 µM, the IC50 [2] was 19.9 µM and the IC50 [3] was 30.9 µM. For the same compound, the IC50 [4] was 20.7 µM.
For `CC1=C(C)[C@H]2[C@H](Cc3ccccc3)NC(=O)[C@]23[C@H](O)/C=C/[C@H](C)C(=O)[C@@H](C)C/C=C/[C@H]3[C@@H]1O`, the IC50 [1] was > 200 µM, the IC50 [2] was 17.1 µM and the IC50 [3] was 35.7 µM. For the same compound, the IC50 [4] was 26 µM.

From ChEMBL document CHEMBL3400085, “New cytochalasins from medicinal macrofungus Crodyceps taii and their inhibitory activities against human cancer cells” (Bioorg Med Chem Lett, 2015)
